Source: patent publication US11666570B2, “Diagnosis and regulation of epidermal differentiation and cancer cell activity” (The Board of Trustees of the Leland Stanford Junior …, priority 2019, dated 2023)
Residues, ends and D or L forms follow the SMILES beside them. *: point of attachment. Cbz = O=C(OCc1ccccc1)*

What was measured:
Type in all cases: cell-based
[1] = target: T1, RET (Homo sapiens, UniProt P07949); assay: RET phosphorylation at Y1062 in non-transformed human skin organoids (Western blot); conditions: non-transformed human skin organoids grown 7 days on dermis, BLU-667 15 nM vs DMSO
T1 construct: endogenous in cells; host or cells: human skin organoids from primary human keratinocytes seeded on devitalized human dermis
T1 sequence (P07949 29-1114): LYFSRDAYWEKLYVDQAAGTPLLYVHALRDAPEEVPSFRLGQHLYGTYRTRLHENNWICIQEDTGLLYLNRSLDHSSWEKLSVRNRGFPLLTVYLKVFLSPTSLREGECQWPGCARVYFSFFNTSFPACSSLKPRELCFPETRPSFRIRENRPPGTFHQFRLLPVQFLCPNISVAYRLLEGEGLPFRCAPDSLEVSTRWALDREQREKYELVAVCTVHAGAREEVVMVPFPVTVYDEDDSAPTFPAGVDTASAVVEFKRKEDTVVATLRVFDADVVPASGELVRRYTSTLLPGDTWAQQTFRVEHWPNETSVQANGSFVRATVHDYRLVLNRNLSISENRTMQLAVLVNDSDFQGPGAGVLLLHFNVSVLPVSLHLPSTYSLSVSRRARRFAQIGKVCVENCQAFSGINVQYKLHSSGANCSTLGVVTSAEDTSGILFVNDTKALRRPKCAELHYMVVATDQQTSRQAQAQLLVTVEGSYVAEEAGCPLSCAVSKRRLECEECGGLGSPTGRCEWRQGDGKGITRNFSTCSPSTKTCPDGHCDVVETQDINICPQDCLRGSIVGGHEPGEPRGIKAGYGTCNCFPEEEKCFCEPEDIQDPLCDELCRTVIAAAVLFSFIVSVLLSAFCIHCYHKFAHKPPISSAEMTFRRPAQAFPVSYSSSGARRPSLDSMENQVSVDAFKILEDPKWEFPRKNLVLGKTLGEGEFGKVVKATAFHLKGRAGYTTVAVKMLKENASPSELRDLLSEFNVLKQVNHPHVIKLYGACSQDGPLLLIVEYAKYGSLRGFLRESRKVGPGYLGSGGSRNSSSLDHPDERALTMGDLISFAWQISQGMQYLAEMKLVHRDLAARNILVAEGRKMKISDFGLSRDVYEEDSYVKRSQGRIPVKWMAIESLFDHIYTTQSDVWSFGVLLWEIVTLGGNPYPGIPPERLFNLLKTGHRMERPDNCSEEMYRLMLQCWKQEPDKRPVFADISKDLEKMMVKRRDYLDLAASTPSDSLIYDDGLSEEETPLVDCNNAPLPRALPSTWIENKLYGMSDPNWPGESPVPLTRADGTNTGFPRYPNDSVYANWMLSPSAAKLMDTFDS
Description: (§1) As loss of differentiation may be coupled to other cancer-enabling behaviors, we next considered the therapeutic implications of aberrant RET activation in SCC. […] We next used MAB21L4-intact or MAB21L4-ablated primary human keratinocytes to generate skin organoids programmed to undergo invasive neoplasia by oncogenic Ras and Cdk4. These neoplastic tissues were maintained in culture medium containing BLU-667 to investigate the contribution of RET to SCC development.
Human Skin Organoids and Skin Xenografts Generation of human skin organoids was performed as previously described. […] To generate organotypic invasive epidermal neoplasia, devitalized human dermis was populated with human primary fibroblasts at least 1 week prior to keratinocyte seeding. Keratinocytes were transduced with oncogenic HRas as well as Cdk4 and seeded onto fibroblast-containing dermis. Neoplastic tissues were harvested for analysis up to 14 days post-seeding.
Western Blotting Cells and organoids were both lysed in RIPA buffer (Thermo Fisher Scientific) supplemented with phosphatase inhibitor and protease inhibitor cocktails (Sigma-Aldrich). For human skin organoids, the epidermis was separated from the dermis, immersed in RIPA buffer, and subjected to 4 cycles of disruption using the gentleMACS Dissociator (Miltenyi Biotec). […]

[2] = tested on: human skin organoids; assay: Stratification and epidermal thickness of organotypic human epidermis under BLU-667 (immunofluorescence); conditions: vs vehicle (DMSO)
Description: as §1
(§2) To test this, we assessed neoplastic invasion in human skin organoids with BLU-667 added to the culture medium after early malignant transformation occurred. […] Human skin tissues undergoing malignant transformation by enforced expression of oncogenic Ras and Cdk4 were then subjected to BLU-667 treatment following the onset of early neoplastic invasion.
Human Skin Organoids and Skin Xenografts Generation of human skin organoids was performed as previously described. Briefly, 1×10^6 keratinocytes were seeded onto a 1 cm^2 section of devitalized human dermis and cultured at the air-liquid interface for up to 6 days for differentiation studies. To generate organotypic invasive epidermal neoplasia, devitalized human dermis was populated with human primary fibroblasts at least 1 week prior to keratinocyte seeding. Keratinocytes were transduced with oncogenic HRas as well as Cdk4 and seeded onto fibroblast-containing dermis. […]

[3] = tested on: oncogenic Ras-transformed human skin organoids; assay: Neoplastic invasion in human skin organoids transformed by oncogenic Ras and Cdk4
Description: as §1, §2
(§3) Human Skin Organoids and Skin Xenografts Generation of human skin organoids was performed as previously described. Briefly, 1×10^6 keratinocytes were seeded onto a 1 cm^2 section of devitalized human dermis and cultured at the air-liquid interface for up to 6 days for differentiation studies. To generate organotypic invasive epidermal neoplasia, devitalized human dermis was populated with human primary fibroblasts at least 1 week prior to keratinocyte seeding. Keratinocytes were transduced with oncogenic HRas as well as Cdk4 and seeded onto fibroblast-containing dermis. Neoplastic tissues were harvested for analysis up to 14 days post-seeding.
Immunofluorescence Human skin organoids were embedded in Optimal Cutting Temperature (OCT) compound (Sakura Finetek) and 7 μm tissue sections were mounted onto polylysine slides (Thermo Scientific). Tissue cryosections were fixed in 100% methanol at −20° C. for 10 min and subsequently permeabilized by incubation with 0.1% Triton X-100 (Sigma-Aldrich) in PBS. The tissues were then incubated for 30 minutes at room temperature with blocking buffer (horse serum diluted 1:10 in PBS) and then for 1 hour with primary antibodies diluted in 0.05% Triton X-100 (Sigma-Aldrich) and 1:100 horse serum in PBS. […]
Images of several zstacks were acquired and the maximum intensity projection image was generated by using the Fiji-ImageJ package. Invasion index was calculated as integrated density of the Keratin 5 staining underneath the basement membrane divided by the length of the basement membrane. Integrated density and basement membrane length were both analyzed using the Fiji-ImageJ package. The invasion depth was calculated as the distance between the basement membrane and the most distant invading cell in each field of view analyzed. The distance between the basement membrane and the most distant invading cell was analyzed in 3 areas of each field of view using the Fiji-ImageJ package and was averaged. […]

[4] = tested on: RET; assay: RET expression in normal human skin organoids treated with proteasome inhibitor (Western blot); conditions: normal skin organoids grown 3 days on dermis, MG132 20 μM for 12 hrs vs DMSO
Description: Given the proximity of CacyBP and RET, we wondered whether RET stability in the skin might be regulated by ubiquitination. Fluorescent PLA signal generated by RET and ubiquitin proximity was abolished in MAB21L4-ablated epidermis using two independent sgRNAs (FIG. 5f,g). […] Loss of MAB21L4, such as occurs in cancer, would stabilize RET by preventing its Siah1-mediated degradation and may explain RET upregulation in SCC.
as §3
Western Blotting Cells and organoids were both lysed in RIPA buffer (Thermo Fisher Scientific) supplemented with phosphatase inhibitor and protease inhibitor cocktails (Sigma-Aldrich). […]

[5] = MAB21L4-intact or MAB21L4-ablated Ras/Cdk4 organoids, 7 days in medium containing BLU-667 15 nM
[6] = Ras/Cdk4 organoids, BLU-667 15 nM initiated on day 7 after early invasion, analysed day 14, vs vehicle

SMILES	RET phosphorylation at Y1062 (suppression of RET signaling) [1]	epidermal stratification and thickness ([2]; late-onset treatment: BLU-667 15 nM initiated on day 7, 14 days of growth)	stratification and epidermal thickness ([2]; organoids cultured in continuous presence of BLU-667 15 nM, 7 days)	basement membrane degradation [3, 5]	neoplastic invasion (invasion index) [3, 5]	keratinocytes below the basement membrane (invasion index), established invasion [3, 6]	tumor infiltration depth (invasion depth), established invasion [3, 6]	RET expression [4]
CO[C@]1(C(=O)N[C@@H](C)c2ccc(-n3cc(F)cn3)nc2)CC[C@H](c2nc(C)cc(Nc3cc(C)[nH]n3)n2)CC1 [BLU-667]	reduction in RET phosphorylation at Y1062	did not adversely affect epidermal stratification and thickness	did not differ substantially from vehicle controls	prevented basement membrane degradation	suppressed invasion accelerated by MAB21L4 loss	fewer keratinocytes below the basement membrane	reduction in tumor infiltration depth	–
CC(C)C[C@@H](C=O)NC(=O)[C@H](CC(C)C)NC(=O)[C@H](CC(C)C)NC(=O)OCc1ccccc1 [MG132] (Cbz-Leu-Leu-Leu-aldehyde)	–	–	–	–	–	–	–	RET accumulation
